Data as given in US7335814B2, “Transgenic cells expressing glucosyltransferase nucleic acids” (The University of York, priority 2000, dated 2008).

Experiments:
Format in all cases: biochemical
recombinant GTase A320 = biological target: T1, recombinant GTase A320 (Arabidopsis thaliana, UniProt Q9LVF0); assay: Specific activity of recombinant GTase producing glucose ester against lignin precursors (HPLC); details: 5 mM UDPG, 0.2 μg GTase, 200 μl, 20° C., 30 min
T1 construct: made in house; host or cells: E. coli
T1 sequence (Q9LVF0 1-496): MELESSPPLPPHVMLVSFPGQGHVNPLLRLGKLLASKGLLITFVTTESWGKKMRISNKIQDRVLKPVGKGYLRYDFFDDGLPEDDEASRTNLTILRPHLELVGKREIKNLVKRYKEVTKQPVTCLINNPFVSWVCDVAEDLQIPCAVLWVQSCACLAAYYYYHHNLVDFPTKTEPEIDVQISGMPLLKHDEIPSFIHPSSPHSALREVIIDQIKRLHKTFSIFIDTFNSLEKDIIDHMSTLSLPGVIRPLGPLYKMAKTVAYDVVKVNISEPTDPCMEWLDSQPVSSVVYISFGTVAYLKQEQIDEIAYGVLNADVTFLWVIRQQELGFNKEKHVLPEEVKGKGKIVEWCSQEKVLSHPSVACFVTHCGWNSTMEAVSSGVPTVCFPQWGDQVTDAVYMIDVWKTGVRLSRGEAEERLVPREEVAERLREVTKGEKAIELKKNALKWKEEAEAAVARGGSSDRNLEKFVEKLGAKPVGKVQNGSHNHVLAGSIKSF

recombinant GTase A42 = biological target: T2, recombinant GTase A42 (Arabidopsis thaliana, UniProt O23401); assay: as above; details: 0.5 ml of potential substrates, 5 mM UDPG, 0.2 μg GTase, 200 μl, 20° C., 30 min
T2 construct: made in house; host or cells: E. coli
T2 sequence (O23401 1-479): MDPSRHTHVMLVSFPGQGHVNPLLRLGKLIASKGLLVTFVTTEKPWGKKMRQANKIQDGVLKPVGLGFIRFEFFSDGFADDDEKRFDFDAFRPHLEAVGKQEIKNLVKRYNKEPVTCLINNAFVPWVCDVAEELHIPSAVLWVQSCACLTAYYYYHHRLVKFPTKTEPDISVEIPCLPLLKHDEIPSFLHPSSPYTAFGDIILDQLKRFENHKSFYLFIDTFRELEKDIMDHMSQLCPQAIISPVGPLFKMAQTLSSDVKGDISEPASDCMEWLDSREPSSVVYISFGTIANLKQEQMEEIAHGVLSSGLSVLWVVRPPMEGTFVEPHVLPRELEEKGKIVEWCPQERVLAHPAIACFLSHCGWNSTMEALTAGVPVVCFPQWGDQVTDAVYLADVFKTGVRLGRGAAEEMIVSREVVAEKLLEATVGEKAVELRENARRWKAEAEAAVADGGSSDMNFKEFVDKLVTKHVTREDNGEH

recombinant GTase A43 = biological target: T3, recombinant GTase A43 (Arabidopsis thaliana, UniProt O23402); assay: as above; details: 0.5 ml of potential substrates, 5 mM UDPG, 0.2 μg GTase, 200 μl, 20° C., 30 min
T3 construct: made in house; host or cells: E. coli

recombinant GTase A233 = biological target: T4, recombinant GTase A233 (Arabidopsis thaliana, UniProt Q8W491); assay: Specific activity of recombinant GTase producing O-glucosides against lignin precursors (HPLC); details: 30° C.; ND = not detected
T4 construct: made in house; host or cells: E. coli

recombinant GTase A119 = biological target: T5, recombinant GTase A119 (Arabidopsis thaliana, UniProt Q9LVR1); assay: as above; details: 30° C.; ND = not detected
T5 construct: made in house; host or cells: E. coli
T5 sequence (Q9LVR1 1-481): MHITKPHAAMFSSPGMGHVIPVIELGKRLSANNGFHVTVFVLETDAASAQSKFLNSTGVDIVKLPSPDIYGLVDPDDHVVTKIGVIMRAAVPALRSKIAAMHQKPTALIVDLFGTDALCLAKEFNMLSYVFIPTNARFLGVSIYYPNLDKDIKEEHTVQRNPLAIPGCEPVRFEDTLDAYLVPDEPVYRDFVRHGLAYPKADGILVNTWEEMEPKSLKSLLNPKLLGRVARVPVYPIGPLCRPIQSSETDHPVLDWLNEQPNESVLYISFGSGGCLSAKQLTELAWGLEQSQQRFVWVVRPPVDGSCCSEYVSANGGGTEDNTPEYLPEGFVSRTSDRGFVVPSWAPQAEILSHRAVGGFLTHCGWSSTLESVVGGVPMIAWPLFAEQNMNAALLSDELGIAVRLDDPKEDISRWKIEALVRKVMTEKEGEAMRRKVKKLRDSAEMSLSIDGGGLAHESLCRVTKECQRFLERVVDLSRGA

UGT71C1 = biological target: T6, UGT71C1 (Arabidopsis thaliana, UniProt O82381); assay: UGT71C1 glucosyltransferase specific activity towards phenolic compounds (reverse-phase HPLC); details: 1 mM phenolic compound, 5 mM UDP-glucose, 50 mM TRIS-HCl pH 7.0, 30° C., 30 min; mean of three replicates ± standard deviation
T6 construct: GST (N); made in house; host or cells: E. coli
T6 sequence (O82381 1-481): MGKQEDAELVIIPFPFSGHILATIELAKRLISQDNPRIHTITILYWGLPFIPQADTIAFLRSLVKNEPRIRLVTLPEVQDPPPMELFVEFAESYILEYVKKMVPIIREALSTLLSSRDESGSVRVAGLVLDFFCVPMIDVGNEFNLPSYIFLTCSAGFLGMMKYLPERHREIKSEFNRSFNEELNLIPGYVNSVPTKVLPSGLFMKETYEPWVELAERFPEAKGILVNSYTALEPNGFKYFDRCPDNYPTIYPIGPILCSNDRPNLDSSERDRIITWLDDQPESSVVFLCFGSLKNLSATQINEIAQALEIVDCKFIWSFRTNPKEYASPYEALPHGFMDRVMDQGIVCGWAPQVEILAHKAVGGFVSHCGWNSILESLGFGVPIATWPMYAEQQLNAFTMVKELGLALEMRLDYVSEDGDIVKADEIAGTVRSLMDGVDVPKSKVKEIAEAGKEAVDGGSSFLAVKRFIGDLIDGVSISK

recombinant GTase A911 = biological target: T7, recombinant GTase A911 (Arabidopsis thaliana, UniProt O22182); assay: Specific activity of recombinant GTase producing glucose ester against lignin precursors (HPLC); set-up: made in house; host or cells: E. coli; details: 0.5 ml of potential substrates, 5 mM UDPG, 0.2 μg GTase, 200 μl, 20° C., 30 min
T7 sequence (O22182 1-456): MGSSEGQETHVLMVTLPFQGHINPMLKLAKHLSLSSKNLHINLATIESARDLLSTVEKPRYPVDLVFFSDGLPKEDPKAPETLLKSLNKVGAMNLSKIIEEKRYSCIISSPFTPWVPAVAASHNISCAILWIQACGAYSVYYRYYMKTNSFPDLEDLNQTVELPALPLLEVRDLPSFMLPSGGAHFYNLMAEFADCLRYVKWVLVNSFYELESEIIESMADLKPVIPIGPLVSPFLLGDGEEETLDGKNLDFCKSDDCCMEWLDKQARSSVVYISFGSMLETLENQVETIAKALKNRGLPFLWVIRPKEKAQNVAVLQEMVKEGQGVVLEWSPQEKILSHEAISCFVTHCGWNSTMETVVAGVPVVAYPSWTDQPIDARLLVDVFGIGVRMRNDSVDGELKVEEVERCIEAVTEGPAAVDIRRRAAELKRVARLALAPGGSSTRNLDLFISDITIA

COc1cc(/C=C/C(=O)O)ccc1O [Ferulic acid, ferulic acid]
Specific activity of A320 (substrate converted to glucose ester) (recombinant GTase A320): 0.54 nkat/mg | Specific activity of A42 (substrate converted to glucose ester) (recombinant GTase A42): 15.63 nkat/mg | Specific activity of A43 (substrate converted to glucose ester) (recombinant GTase A43): 0.04 nkat/mg | Specific activity of A233 (substrate converted to 4-O-glucoside) (recombinant GTase A233): 0.37 nkat/mg | Specific activity of A119 (substrate converted to 4-O-glucoside) (recombinant GTase A119): 14.48 nkat/mg | Specific activity (UGT71C1) (UGT71C1): 0 nkat/mg | Specific activity of A911 (substrate converted to glucose ester) (recombinant GTase A911): 2.88 nkat/mg

O=C(O)/C=C/c1ccc(O)cc1 [p-coumaric acid]
Specific activity of A320 (substrate converted to glucose ester) (recombinant GTase A320): 0.05 nkat/mg | Specific activity of A42 (substrate converted to glucose ester) (recombinant GTase A42): 4.69 nkat/mg | Specific activity of A43 (substrate converted to glucose ester) (recombinant GTase A43): 0.03 nkat/mg | Specific activity of A233 (substrate converted to 4-O-glucoside) (recombinant GTase A233): 0.09 nkat/mg | Specific activity of A119 (substrate converted to 4-O-glucoside) (recombinant GTase A119): 0.02 nkat/mg | Specific activity (UGT71C1) (UGT71C1): 0 nkat/mg | Specific activity of A911 (substrate converted to glucose ester) (recombinant GTase A911): 4.31 nkat/mg
